Drawing on US20060160864A1, “Acrylamide derivative, process for producing the same, and use” (priority 2003, published 2006), this text covers inhibition and melting point for 8 compounds.

T1 sequence (P51681 whole entry): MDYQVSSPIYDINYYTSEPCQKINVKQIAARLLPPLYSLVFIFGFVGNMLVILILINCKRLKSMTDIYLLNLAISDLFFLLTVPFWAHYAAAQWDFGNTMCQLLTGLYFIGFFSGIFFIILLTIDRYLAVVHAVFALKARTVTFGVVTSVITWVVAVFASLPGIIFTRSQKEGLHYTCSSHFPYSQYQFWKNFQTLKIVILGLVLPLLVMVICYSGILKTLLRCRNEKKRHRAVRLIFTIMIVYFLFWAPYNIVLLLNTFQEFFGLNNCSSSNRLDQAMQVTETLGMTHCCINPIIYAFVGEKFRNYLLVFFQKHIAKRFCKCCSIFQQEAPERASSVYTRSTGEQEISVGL

One series concerns the target T1, human CCR5 (Homo sapiens, UniProt P51681).
T1 construct: expressed in transfected cells
The series can be described thus: Inhibition of [125I]-RANTES binding to CCR5/CHO cells (CCR5 antagonist activity). The conditions noted are these: 40 min, test compound 1 μM, [125I]-RANTES 100 pM, CCR5/CHO strains, room temperature, read-out: Binding Inhibitory Ratio (%). How it is done: Cloning of a CCR5 gene was conducted from human spleen cDNA by a PCR method. Using 0.5 ng of spleen cDNA (Toyobo Co., Ltd., QUICK-Clone cDNA) as a template, the PCR reaction was carried out in a DNA Thermal Cycler 480 (Perkin Elmer) using a TaKaRa EX Taq (Takara Shuzo Co., Ltd.) (reaction conditions: 30 cycles of treatments at 95° C. for 1 minute, at 60° C. for 1 minute, and at 75° C. for 5 minutes) by adding 25 pmol of primers, SEQ ID NO. 1 (sequence length: 34; sequence type: nucleic acid; number of chains: a single chain; topology: linear; sequence kind: other nucleic acid, synthetic DNA) described in Experimental Example (1) of WO 99/32100, and SEQ ID NO. 2 (sequence length: 34; sequence type: nucleic acid; number of chains: a single chain; topology: linear; sequence kind: other nucleic acid, synthetic DNA) described in Experimental Example (1) of WO 99/32100, respectively, which were prepared by referring to the base sequence of the CCR5 gene described by Samson et al. (Biochemistry 35 (11), 3362-3367 (1996)). The PCR products were subjected to agarose gel electrophoresis to collect DNA fragments of about 1.0 kb. Then, the CCR5 gene was cloned using an Original TA Cloning Kit (Funakoshi Co., Ltd.).
The plasmids obtained above were digested with restriction enzymes XbaI (Takara Shuzo Co., Ltd.) and BamHI (Takara Shuzo Co., Ltd.), and subjected to agarose gel electrophoresis to collect DNA fragments of about 1.0 kb. The DNA fragments and a plasmid pcDNA3.1 (Funakoshi Co., Ltd.) for expression in animal cells, which was previously digested with XbaI and BamHI, were mixed and ligated by DNA Ligation Kit Ver.2 (Takara Shuzo Co., Ltd.). Transformation of E. coli JM109 competent cells (Takara Shuzo Co., Ltd.) gave plasmid pCKR5.
CHO-K1 cells grown in a 750 ml tissue culture flask (Becton Dickinson) using Ham's F12 medium (Nihon Pharmaceutical Co., Ltd.) containing 10% fetal bovine serum (Lifetech Oriental) were collected from the flask by using 0.5 g/L trypsin-0.2 g/L EDTA (Lifetech Oriental). The cells were then washed with PBS (Lifetech Oriental), centrifuged (1000 rpm, 5 minutes), and suspended in PBS. Next, DNA was introduced into the cells using Gene Pulser (Bio-Rad Laboratories Inc.) under the following conditions. Namely, 8×10^6 cells and 10 μg of plasmid pCKR5 for expression of human CCR5 were added into a cuvette of a 0.4 cm-gap, and electroporation was carried out at an electric voltage of 0.25 kV and a capacitance of 960 μF. Subsequently, the cells were transferred into Ham's F12 medium containing 10% fetal bovine serum, and incubated for 24 hours. The cells were again collected, centrifuged, and then suspended in Ham's F12 medium containing 10% fetal bovine serum and Geneticin (Lifetech Oriental) at a concentration of 500 μg/ml. The suspension of cells was diluted to a concentration of 10^4 cells/ml, and inoculated on a 96-well plate (Becton Dickinson) to give Geneticin-resistant strains.
Subsequently, the Geneticin-resistant strains were cultured in the 96-well plate (Becton Dickinson), and then CCR5-expressing cells were selected from the resistant strains. Namely, an assay buffer (Ham's F12 medium containing 0.5% BSA, and 20 mM HEPES (Wako Pure Chemical Industries, Ltd., pH 7.2)) containing 200 pM [^125I]-RANTES (Amersham) as a ligand was added to each well and the binding reaction was carried out at room temperature for 40 minutes. Each well plate containing the cells was washed with ice-cooled PBS, and then to each well was added 1 M NaOH in an amount of 50 μl/well, which was stirred. The cells to which the ligand bound specifically, i.e., CCR5/CHO strains, were selected by measurement of radioactivity by γ-counter.
The CCR5/CHO strains were inoculated on a 96-well microplate at a concentration of 5×10^4 cells/well, respectively and were cultured for 24 hours. […]
For `CCCCOCCOc1ccc(-c2ccc(N3CCC(C(=O)O)C3)c(/C=C(\C)C(=O)Nc3ccc([S@@+]([O-])Cc4cncn4CCC)cc3)c2)cc1` (stereo partly drawn) [Compound 41, (Ss)-(2E)-3-[4′-(2-butoxyethoxy)-4-(3-carboxypyrrolidin-1-yl)-1,1′-biphenyl-3-yl]-2-methyl-N-[4-[[(1-propyl-1H-imidazol-5-yl)methyl]sulfinyl]phenyl]acrylamide], the inhibition at 1 µM was 100%. Still for that read-out and setting: then `CCCCOCCOc1ccc(-c2cnc(N3CCC(COC(C)=O)C3)c(/C=C(\C)C(=O)Nc3ccc([S@@+]([O-])Cc4cncn4CCC)cc3)c2)cc1` (stereo partly drawn) [Compound 49, (Ss)-(2E)-3-[2-[3-(acetoxymethyl)pyrrolidin-1-yl]-5-[4-(2-butoxyethoxy)phenyl]pyridin-3-yl]-2-methyl-N-(4-[[(1-propyl-1H-imidazol-5-yl)methyl]sulfinyl]phenyl]acrylamide], with 100%. For `CCCCOCCOc1ccc(-c2cnc(N3CCC(CO)C3)c(/C=C(\C)C(=O)Nc3ccc([S@@+]([O-])Cc4cncn4CCC)cc3)c2)cc1` (stereo partly drawn) [Compound 50, (Ss)-(2E)-3-[5-[4-(2-butoxyethoxy)phenyl]-2-[3-(hydroxymethyl)pyrrolidin-1-yl]pyridin-3-yl]-2-methyl-N-[4-[[(1-propyl-1H-imidazol-5-yl)methyl]sulfinyl]phenyl]acrylamide], the inhibition at 1 µM was 100%. For `CCCCOCCOc1ccc(-c2ccc(N3CCC(CC(=O)OCC)C3)c(/C=C(\C)C(=O)Nc3ccc([S@@+]([O-])Cc4cncn4CCC)cc3)c2)cc1` (stereo partly drawn) [Compound 61, (Ss)-(2E)-3-[4′-(2-butoxyethoxy)-4-[3-(2-ethoxy-2-oxoethyl)pyrrolidin-1-yl]-1,1′-biphenyl-3-yl]-2-methyl-N-(4-[[(1-propyl-1H-imidazol-5-yl)methyl]sulfinyl]phenyl]acrylamide], the inhibition at 1 µM was determined as 94%.

Consider `CCCCOCCOc1ccc(-c2ccc(N3CCC(CC(=O)O)C3)c(/C=C(\C)C(=O)Nc3ccc([S@@+]([O-])Cc4cncn4CCC)cc3)c2)cc1` (stereo partly drawn) [Compound 62, (Ss)-(2E)-3-[4′-(2-butoxyethoxy)-4-[3-(carboxymethyl)pyrrolidin-1-yl]-1,1′-biphenyl-3-yl]-2-methyl-N-[4-[[(1-propyl-1H-imidazol-5-yl)methyl]sulfinyl]phenyl]acrylamide], for which the inhibition at 1 µM came out at 100%.

System in another series: not given
Test: not given
Conditions: not given
Regarding `CCCCOCCOc1ccc(-c2ccc(N3CCC4(C3)OCCO4)c(/C=C(\C)C(=O)Nc3ccc([S@@+]([O-])Cc4cncn4CCC)cc3)c2)cc1` [Compound 37, (S)-(2E)-3-[4′-(2-butoxyethoxy)-4-(1,4-dioxa-7-azaspiro[4.4]non-7-yl)-1,1′-biphenyl-3-yl]-2-methyl-N-[4-[[(1-propyl-1H-imidazol-5-yl)methyl]sulfinyl]phenyl]acrylamide], the melting point is 139.5 to 140.5 °C. Compound `CCCCOCCOc1ccc(-c2ccc(N3CCC(C(=O)O)C3)c(/C=C(\C)C(=O)Nc3ccc([S@@+]([O-])Cc4cncn4CCC)cc3)c2)cc1` (stereo partly drawn) [Compound 41, (Ss)-(2E)-3-[4′-(2-butoxyethoxy)-4-(3-carboxypyrrolidin-1-yl)-1,1′-biphenyl-3-yl]-2-methyl-N-[4-[[(1-propyl-1H-imidazol-5-yl)methyl]sulfinyl]phenyl]acrylamide] returned a melting point of 184 to 186 °C. Still for that read-out and setting: then `CCCCOCCOc1ccc(-c2ccc(N3CCC(C(=O)NC)C3)c(/C=C(\C)C(=O)Nc3ccc([S@@+]([O-])Cc4cncn4CCC)cc3)c2)cc1` (stereo partly drawn) [Compound 44, (Ss)-(2E)-3-[4′-(2-butoxyethoxy)-4-[3-(methylaminocarbonyl)pyrrolidin-1-yl]-1,1′-biphenyl-3-yl]-2-methyl-N-[4-[[(1-propyl-1H-imidazol-5-yl)methyl]sulfinyl]phenyl]acrylamide], with 127 to 128.5 °C.

Take `CCCCOCCOc1ccc(-c2ccc(N3CCC(C(=O)N(C)C)C3)c(/C=C(\C)C(=O)Nc3ccc([S@@+]([O-])Cc4cncn4CCC)cc3)c2)cc1` (stereo partly drawn) [Compound 45, (Ss)-(2E)-3-[4′-(2-butoxyethoxy)-4-[3-(dimethylaminocarbonyl)pyrrolidin-1-yl]-1,1′-biphenyl-3-yl]-2-methyl-N-[4-[[(1-propyl-1H-imidazol-5-yl)methyl]sulfinyl]phenyl]acrylamide]: the melting point was in the range of 151 to 152 °C.
